{"source": "paper doi:10.1101/2020.06.11.145995v1", "about": "(biorxiv, 2020)", "test_in_all_cases": "biochemical", "key": {"NEK5": {"target": "NEK5 (Homo sapiens, UniProt Q6P3R8)"}, "YSK4": {"target": "YSK4 (Homo sapiens, UniProt Q56UN5)", "sequence (Q56UN5 whole entry)": "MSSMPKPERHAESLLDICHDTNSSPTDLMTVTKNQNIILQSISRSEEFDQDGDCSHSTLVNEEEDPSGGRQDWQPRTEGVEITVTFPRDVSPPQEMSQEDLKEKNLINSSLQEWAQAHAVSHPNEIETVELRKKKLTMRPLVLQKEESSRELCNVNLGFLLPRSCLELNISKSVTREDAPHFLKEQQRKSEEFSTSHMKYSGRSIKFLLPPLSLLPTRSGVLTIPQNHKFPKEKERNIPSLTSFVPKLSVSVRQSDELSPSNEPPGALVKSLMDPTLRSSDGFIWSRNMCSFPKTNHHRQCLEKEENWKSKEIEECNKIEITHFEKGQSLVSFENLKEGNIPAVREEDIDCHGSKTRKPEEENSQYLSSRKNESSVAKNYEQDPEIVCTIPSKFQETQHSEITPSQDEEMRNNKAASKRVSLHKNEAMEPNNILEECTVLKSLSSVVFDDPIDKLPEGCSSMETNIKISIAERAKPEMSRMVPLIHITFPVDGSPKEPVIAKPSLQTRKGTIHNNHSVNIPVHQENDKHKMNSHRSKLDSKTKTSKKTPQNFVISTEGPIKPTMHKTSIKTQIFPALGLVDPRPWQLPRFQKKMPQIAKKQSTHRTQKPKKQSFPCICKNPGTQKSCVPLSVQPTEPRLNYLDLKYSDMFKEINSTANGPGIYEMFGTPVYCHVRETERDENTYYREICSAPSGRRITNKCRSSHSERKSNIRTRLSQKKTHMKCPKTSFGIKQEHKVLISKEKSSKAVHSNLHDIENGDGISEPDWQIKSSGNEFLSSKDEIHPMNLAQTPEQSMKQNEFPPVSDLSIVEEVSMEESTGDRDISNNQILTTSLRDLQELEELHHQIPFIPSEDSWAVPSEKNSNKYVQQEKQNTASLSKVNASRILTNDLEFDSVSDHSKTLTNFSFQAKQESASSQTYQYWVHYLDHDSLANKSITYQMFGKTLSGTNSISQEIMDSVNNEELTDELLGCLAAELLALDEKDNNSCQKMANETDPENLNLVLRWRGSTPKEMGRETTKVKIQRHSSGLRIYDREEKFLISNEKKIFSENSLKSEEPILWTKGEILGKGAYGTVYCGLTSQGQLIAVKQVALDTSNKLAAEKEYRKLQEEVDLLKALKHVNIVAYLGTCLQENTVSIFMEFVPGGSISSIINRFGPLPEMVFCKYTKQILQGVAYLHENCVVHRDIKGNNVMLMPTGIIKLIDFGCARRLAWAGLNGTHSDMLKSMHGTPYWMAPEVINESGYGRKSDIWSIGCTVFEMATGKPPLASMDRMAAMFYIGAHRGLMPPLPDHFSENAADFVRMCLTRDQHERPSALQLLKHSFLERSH"}, "OSR1": {"target": "OSR1 (Homo sapiens, UniProt O95747)"}, "PRKD1": {"target": "PRKD1 (Homo sapiens, UniProt Q15139)"}, "PIK3CA(H1047Y)": {"target": "PIK3CA(H1047Y (Homo sapiens, UniProt P42336, H1047Y))"}, "PYK2": {"target": "PYK2 (Homo sapiens, UniProt Q14289)"}, "NEK4": {"target": "NEK4 (Homo sapiens, UniProt P51957)"}, "SgK110": {"target": "SgK110 (Homo sapiens, UniProt P0C264)"}, "WEE1": {"target": "WEE1 (Homo sapiens, UniProt P30291)"}, "PRKR": {"target": "PRKR (Homo sapiens, UniProt P19525)", "sequence (P19525 whole entry)": "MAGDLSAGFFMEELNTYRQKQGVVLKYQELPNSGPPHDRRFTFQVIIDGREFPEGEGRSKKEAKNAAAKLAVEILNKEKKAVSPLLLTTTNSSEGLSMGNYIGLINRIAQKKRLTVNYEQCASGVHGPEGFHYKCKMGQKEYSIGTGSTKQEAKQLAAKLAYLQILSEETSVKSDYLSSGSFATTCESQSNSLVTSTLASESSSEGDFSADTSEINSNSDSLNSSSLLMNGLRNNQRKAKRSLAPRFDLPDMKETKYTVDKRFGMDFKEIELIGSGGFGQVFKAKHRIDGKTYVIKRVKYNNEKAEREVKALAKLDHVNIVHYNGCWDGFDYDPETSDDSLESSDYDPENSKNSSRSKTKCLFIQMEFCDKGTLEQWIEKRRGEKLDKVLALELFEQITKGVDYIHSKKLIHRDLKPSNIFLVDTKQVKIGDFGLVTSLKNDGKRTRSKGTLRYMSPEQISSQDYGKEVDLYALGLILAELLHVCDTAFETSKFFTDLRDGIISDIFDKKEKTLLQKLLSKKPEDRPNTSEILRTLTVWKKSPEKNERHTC"}, "RIOK1": {"target": "RIOK1 (Homo sapiens, UniProt Q9BRS2)", "sequence (Q9BRS2 whole entry)": "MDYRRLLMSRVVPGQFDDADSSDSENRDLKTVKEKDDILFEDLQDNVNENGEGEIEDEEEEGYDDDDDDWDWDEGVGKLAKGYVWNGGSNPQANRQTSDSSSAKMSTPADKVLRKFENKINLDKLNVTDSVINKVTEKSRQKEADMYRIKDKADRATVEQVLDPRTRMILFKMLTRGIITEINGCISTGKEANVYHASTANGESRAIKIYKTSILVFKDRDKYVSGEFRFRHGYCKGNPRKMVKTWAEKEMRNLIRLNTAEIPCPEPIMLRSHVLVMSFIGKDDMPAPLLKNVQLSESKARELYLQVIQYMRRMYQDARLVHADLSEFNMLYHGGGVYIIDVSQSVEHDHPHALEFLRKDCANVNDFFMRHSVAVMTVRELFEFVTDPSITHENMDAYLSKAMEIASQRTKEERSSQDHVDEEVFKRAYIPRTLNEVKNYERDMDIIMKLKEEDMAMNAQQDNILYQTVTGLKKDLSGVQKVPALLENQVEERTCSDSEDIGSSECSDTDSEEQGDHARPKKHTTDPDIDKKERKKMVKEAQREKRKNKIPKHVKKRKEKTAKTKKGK"}, "TRKB": {"target": "TRKB (Homo sapiens, UniProt Q16620)"}, "TRKC": {"target": "TRKC (Homo sapiens, UniProt Q16288)"}, "p38-beta": {"target": "p38-beta (Homo sapiens, UniProt Q15759)", "sequence (Q15759 whole entry)": "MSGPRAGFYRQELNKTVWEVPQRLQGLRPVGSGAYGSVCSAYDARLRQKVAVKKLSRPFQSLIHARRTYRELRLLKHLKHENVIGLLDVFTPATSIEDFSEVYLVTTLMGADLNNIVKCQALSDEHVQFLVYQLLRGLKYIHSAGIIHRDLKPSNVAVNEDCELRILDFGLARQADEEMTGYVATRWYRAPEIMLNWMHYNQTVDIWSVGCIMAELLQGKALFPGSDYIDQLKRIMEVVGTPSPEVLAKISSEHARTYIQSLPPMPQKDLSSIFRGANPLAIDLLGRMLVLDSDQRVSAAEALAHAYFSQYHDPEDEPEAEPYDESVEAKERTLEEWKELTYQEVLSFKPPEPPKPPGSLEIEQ"}, "PAK4": {"target": "PAK4 (Homo sapiens, UniProt O96013)"}, "NDR2": {"target": "NDR2 (Homo sapiens, UniProt Q9Y2H1)"}, "ULK3": {"target": "ULK3 (Homo sapiens, UniProt Q6PHR2)"}, "ROCK1": {"target": "ROCK1 (Homo sapiens, UniProt Q13464)"}, "PAK6": {"target": "PAK6 (Homo sapiens, UniProt Q9NQU5)"}, "SRPK3": {"target": "SRPK3 (Homo sapiens, UniProt Q9UPE1)"}, "SRC": {"target": "SRC (Homo sapiens, UniProt P12931)", "sequence (P12931 whole entry)": "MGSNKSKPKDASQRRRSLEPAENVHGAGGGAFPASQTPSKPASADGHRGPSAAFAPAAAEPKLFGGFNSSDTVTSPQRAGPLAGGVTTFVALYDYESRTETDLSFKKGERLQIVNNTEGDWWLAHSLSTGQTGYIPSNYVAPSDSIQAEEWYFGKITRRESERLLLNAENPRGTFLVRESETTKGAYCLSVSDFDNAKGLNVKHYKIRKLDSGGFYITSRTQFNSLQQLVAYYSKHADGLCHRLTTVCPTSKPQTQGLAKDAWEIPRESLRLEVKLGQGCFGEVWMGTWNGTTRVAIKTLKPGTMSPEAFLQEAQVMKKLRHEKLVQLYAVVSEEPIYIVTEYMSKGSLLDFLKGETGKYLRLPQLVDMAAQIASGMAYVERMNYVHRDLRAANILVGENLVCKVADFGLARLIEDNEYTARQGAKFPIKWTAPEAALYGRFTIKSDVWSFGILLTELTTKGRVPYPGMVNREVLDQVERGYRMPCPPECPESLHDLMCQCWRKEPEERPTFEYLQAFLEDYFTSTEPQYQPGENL"}, "PFTAIRE2": {"target": "PFTAIRE2 (Homo sapiens, UniProt Q96Q40)"}, "PDGFRB": {"target": "PDGFRB (Homo sapiens, UniProt P09619)"}, "TAOK3": {"target": "TAOK3 (Homo sapiens, UniProt Q9H2K8)"}, "TTK": {"target": "TTK (Homo sapiens, UniProt P33981)"}, "PLK4": {"target": "PLK4 (Homo sapiens, UniProt O00444)"}, "NEK9": {"target": "NEK9 (Homo sapiens, UniProt Q8TD19)"}, "RSK3": {"target": "RSK3 (Homo sapiens, UniProt Q15349)", "sequence (Q15349 whole entry)": "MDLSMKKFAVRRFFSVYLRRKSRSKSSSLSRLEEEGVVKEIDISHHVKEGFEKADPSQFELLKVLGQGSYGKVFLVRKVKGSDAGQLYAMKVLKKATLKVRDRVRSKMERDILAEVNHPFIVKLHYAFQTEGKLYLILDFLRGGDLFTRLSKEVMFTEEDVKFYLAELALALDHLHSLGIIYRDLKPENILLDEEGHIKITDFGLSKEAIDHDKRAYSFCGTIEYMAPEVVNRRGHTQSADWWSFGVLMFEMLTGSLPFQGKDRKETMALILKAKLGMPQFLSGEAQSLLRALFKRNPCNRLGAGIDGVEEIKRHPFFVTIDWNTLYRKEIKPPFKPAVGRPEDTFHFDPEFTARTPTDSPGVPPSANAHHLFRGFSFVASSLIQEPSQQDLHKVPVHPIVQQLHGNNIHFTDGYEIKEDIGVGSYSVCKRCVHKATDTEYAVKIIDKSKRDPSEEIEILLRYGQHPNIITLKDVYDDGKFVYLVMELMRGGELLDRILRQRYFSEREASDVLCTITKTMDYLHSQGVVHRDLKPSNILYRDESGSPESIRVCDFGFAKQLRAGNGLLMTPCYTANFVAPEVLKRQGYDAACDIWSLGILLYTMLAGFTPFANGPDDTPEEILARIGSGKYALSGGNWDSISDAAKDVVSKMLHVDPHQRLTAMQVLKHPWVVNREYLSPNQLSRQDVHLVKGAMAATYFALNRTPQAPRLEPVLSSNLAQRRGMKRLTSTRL"}, "TLK1": {"target": "TLK1 (Homo sapiens, UniProt Q9UKI8)", "sequence (Q9UKI8 whole entry)": "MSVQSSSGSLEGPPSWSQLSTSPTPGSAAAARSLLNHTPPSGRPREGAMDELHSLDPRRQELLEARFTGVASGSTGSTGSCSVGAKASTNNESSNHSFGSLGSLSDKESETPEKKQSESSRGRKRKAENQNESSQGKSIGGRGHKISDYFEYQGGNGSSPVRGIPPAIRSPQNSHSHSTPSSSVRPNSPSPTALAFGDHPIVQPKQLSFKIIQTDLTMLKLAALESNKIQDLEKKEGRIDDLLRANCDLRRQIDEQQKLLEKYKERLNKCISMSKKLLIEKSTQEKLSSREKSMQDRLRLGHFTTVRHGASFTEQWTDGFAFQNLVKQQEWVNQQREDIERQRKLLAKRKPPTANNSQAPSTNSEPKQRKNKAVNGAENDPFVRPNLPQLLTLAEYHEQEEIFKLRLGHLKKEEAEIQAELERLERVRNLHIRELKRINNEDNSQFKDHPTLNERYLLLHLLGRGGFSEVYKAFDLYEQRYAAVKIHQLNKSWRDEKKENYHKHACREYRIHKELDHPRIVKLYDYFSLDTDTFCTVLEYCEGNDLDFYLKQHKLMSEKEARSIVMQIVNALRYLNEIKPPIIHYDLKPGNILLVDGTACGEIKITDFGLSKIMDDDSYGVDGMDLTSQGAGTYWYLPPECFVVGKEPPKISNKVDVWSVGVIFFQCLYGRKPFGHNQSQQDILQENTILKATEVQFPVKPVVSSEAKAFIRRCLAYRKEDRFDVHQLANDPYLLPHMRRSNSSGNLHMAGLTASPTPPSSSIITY"}, "[1]": {"details": "read-out: HYJ-2-002-1 (1μM) % control"}, "[2]": {"details": "read-out: CPT-1-70-1 (1μM) % control"}}, "note": "Like-named read-outs stand apart in the source and are kept apart here.", "data": [{"smiles": "CCN1CCN(Cc2ccc(NC(=O)c3ccc(C)c(CCc4cnc5[nH]ccc5c4OC)c3)cc2C(F)(F)F)CC1", "note": "[HYJ-2-002-1]", "values": [{"measurement": "remaining activity at 1 µM", "setting": "NEK5; [1]", "value": 21, "unit": "%"}, {"measurement": "remaining activity at 1 µM", "setting": "YSK4; [1]", "value": 0.45, "unit": "%"}, {"measurement": "remaining activity at 1 µM", "setting": "OSR1; [1]", "value": 93, "unit": "%"}, {"measurement": "remaining activity at 1 µM", "setting": "PRKD1; [1]", "value": 90, "unit": "%"}, {"measurement": "remaining activity at 1 µM", "setting": "PIK3CA(H1047Y); [1]", "value": 100, "unit": "%"}, {"measurement": "remaining activity at 1 µM", "setting": "PYK2; [1]", "value": 21, "unit": "%"}, {"measurement": "remaining activity at 1 µM", "setting": "NEK4; [1]", "value": 57, "unit": "%"}, {"measurement": "remaining activity at 1 µM", "setting": "SgK110; [1]", "value": 96, "unit": "%"}, {"measurement": "remaining activity at 1 µM", "setting": "WEE1; [1]", "value": 100, "unit": "%"}, {"measurement": "remaining activity at 1 µM", "setting": "PRKR; [1]", "value": 75, "unit": "%"}, {"measurement": "remaining activity at 1 µM", "setting": "RIOK1; [1]", "value": 100, "unit": "%"}, {"measurement": "remaining activity at 1 µM", "setting": "TRKB; [1]", "value": 4.2, "unit": "%"}, {"measurement": "remaining activity at 1 µM", "setting": "TRKC; [1]", "value": 8, "unit": "%"}, {"measurement": "remaining activity at 1 µM", "setting": "p38-beta; [1]", "value": 0.35, "unit": "%"}, {"measurement": "remaining activity at 1 µM", "setting": "PAK4; [1]", "value": 99, "unit": "%"}, {"measurement": "remaining activity at 1 µM", "setting": "NDR2; [1]", "value": 100, "unit": "%"}, {"measurement": "remaining activity at 1 µM", "setting": "ULK3; [1]", "value": 53, "unit": "%"}, {"measurement": "remaining activity at 1 µM", "setting": "ROCK1; [1]", "value": 98, "unit": "%"}, {"measurement": "remaining activity at 1 µM", "setting": "PAK6; [1]", "value": 100, "unit": "%"}, {"measurement": "remaining activity at 1 µM", "setting": "SRPK3; [1]", "value": 90, "unit": "%"}, {"measurement": "remaining activity at 1 µM", "setting": "SRC; [1]", "value": 0.2, "unit": "%"}, {"measurement": "remaining activity at 1 µM", "setting": "PFTAIRE2; [1]", "value": 94, "unit": "%"}, {"measurement": "remaining activity at 1 µM", "setting": "PDGFRB; [1]", "value": 0, "unit": "%"}, {"measurement": "remaining activity at 1 µM", "setting": "TAOK3; [1]", "value": 0.45, "unit": "%"}, {"measurement": "remaining activity at 1 µM", "setting": "TTK; [1]", "value": 64, "unit": "%"}, {"measurement": "remaining activity at 1 µM", "setting": "PLK4; [1]", "value": 100, "unit": "%"}, {"measurement": "remaining activity at 1 µM", "setting": "NEK9; [1]", "value": 38, "unit": "%"}, {"measurement": "remaining activity at 1 µM", "setting": "RSK3; read-out: HYJ-2-002-1 (1μM) % control, Kin.Dom.1-N-terminal", "value": 42, "unit": "%"}, {"measurement": "remaining activity at 1 µM", "setting": "RSK3; read-out: HYJ-2-002-1 (1μM) % control, Kin.Dom.2-C-terminal", "value": 73, "unit": "%"}, {"measurement": "remaining activity at 1 µM", "setting": "TLK1; [1]", "value": 74, "unit": "%"}]}, {"smiles": "CN1CCN(c2ccc(Nc3nc(Oc4ccc(NC(=O)CCl)cc4)c4cc[nH]c4n3)cc2)CC1", "note": "[CPT1-70-1]", "values": [{"measurement": "remaining activity at 1 µM", "setting": "NEK5; [2]", "value": 82, "unit": "%"}, {"measurement": "remaining activity at 1 µM", "setting": "YSK4; [2]", "value": 0.45, "unit": "%"}, {"measurement": "remaining activity at 1 µM", "setting": "OSR1; [2]", "value": 96, "unit": "%"}, {"measurement": "remaining activity at 1 µM", "setting": "PRKD1; [2]", "value": 52, "unit": "%"}, {"measurement": "remaining activity at 1 µM", "setting": "PIK3CA(H1047Y); [2]", "value": 100, "unit": "%"}, {"measurement": "remaining activity at 1 µM", "setting": "PYK2; [2]", "value": 66, "unit": "%"}, {"measurement": "remaining activity at 1 µM", "setting": "NEK4; [2]", "value": 100, "unit": "%"}, {"measurement": "remaining activity at 1 µM", "setting": "SgK110; [2]", "value": 100, "unit": "%"}, {"measurement": "remaining activity at 1 µM", "setting": "WEE1; [2]", "value": 88, "unit": "%"}, {"measurement": "remaining activity at 1 µM", "setting": "PRKR; [2]", "value": 93, "unit": "%"}, {"measurement": "remaining activity at 1 µM", "setting": "RIOK1; [2]", "value": 49, "unit": "%"}, {"measurement": "remaining activity at 1 µM", "setting": "TRKB; [2]", "value": 28, "unit": "%"}, {"measurement": "remaining activity at 1 µM", "setting": "TRKC; [2]", "value": 61, "unit": "%"}, {"measurement": "remaining activity at 1 µM", "setting": "p38-beta; [2]", "value": 100, "unit": "%"}, {"measurement": "remaining activity at 1 µM", "setting": "PAK4; [2]", "value": 12, "unit": "%"}, {"measurement": "remaining activity at 1 µM", "setting": "NDR2; [2]", "value": 61, "unit": "%"}, {"measurement": "remaining activity at 1 µM", "setting": "ULK3; [2]", "value": 19, "unit": "%"}, {"measurement": "remaining activity at 1 µM", "setting": "ROCK1; [2]", "value": 29, "unit": "%"}, {"measurement": "remaining activity at 1 µM", "setting": "PAK6; [2]", "value": 74, "unit": "%"}, {"measurement": "remaining activity at 1 µM", "setting": "SRPK3; [2]", "value": 100, "unit": "%"}, {"measurement": "remaining activity at 1 µM", "setting": "SRC; [2]", "value": 6.6, "unit": "%"}, {"measurement": "remaining activity at 1 µM", "setting": "PFTAIRE2; [2]", "value": 100, "unit": "%"}, {"measurement": "remaining activity at 1 µM", "setting": "PDGFRB; [2]", "value": 6.9, "unit": "%"}, {"measurement": "remaining activity at 1 µM", "setting": "TAOK3; [2]", "value": 71, "unit": "%"}, {"measurement": "remaining activity at 1 µM", "setting": "TTK; [2]", "value": 4.8, "unit": "%"}, {"measurement": "remaining activity at 1 µM", "setting": "PLK4; [2]", "value": 23, "unit": "%"}, {"measurement": "remaining activity at 1 µM", "setting": "NEK9; [2]", "value": 100, "unit": "%"}, {"measurement": "remaining activity at 1 µM", "setting": "RSK3; read-out: CPT-1-70-1 (1μM) % control, Kin.Dom.1-N-terminal", "value": 66, "unit": "%"}, {"measurement": "remaining activity at 1 µM", "setting": "RSK3; read-out: CPT-1-70-1 (1μM) % control, Kin.Dom.2-C-terminal", "value": 100, "unit": "%"}, {"measurement": "remaining activity at 1 µM", "setting": "TLK1; [2]", "value": 100, "unit": "%"}]}]}
